Experimental data: patent US11584714B2 (priority 2018, dated 2023)
Structures can show the parent of a compound that is named as a salt. Where two headings read alike, the source gives them in different places.

Assays:
Format in all cases: biochemical
mMASP-2 = mMASP-2 (Mus musculus (Mouse), UniProt Q91WP0); assay: Enzymatic inhibition of mMASP-2; settings: read-out: mMASP-2 Ki
MASP-2 (CCP1-CCP2-SP) = MASP-2 (CCP1-CCP2-SP) (Homo sapiens (Human), UniProt O00187); assay: biochemical
human α-thrombin = human α-thrombin (Homo sapiens (Human), UniProt P00734); assay: Enzymatic assay for thrombin (Boc-VPR-AMC substrate)
[1] = selectivity for MASP-2 inhibition versus thrombin
[2] = MASP-2 inhibition versus thrombin

mMASP-2, sequence (Q91WP0 20-685): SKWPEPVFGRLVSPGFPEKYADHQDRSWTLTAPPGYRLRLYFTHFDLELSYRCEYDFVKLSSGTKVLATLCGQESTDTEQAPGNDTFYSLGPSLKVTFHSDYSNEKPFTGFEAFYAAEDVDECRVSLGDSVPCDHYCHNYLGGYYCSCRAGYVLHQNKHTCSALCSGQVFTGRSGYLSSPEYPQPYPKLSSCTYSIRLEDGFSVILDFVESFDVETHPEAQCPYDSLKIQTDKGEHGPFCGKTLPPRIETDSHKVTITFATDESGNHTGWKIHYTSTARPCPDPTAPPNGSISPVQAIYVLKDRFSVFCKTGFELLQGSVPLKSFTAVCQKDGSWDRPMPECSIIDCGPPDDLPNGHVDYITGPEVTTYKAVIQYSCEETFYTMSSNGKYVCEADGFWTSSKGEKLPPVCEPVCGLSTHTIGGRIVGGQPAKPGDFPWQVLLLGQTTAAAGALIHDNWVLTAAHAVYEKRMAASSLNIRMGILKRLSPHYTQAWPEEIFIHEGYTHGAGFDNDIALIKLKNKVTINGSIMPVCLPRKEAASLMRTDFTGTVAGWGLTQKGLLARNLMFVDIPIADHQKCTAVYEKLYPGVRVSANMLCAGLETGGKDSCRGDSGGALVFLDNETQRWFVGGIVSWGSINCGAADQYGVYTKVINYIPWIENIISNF
MASP-2 (CCP1-CCP2-SP), sequence (O00187 445-686): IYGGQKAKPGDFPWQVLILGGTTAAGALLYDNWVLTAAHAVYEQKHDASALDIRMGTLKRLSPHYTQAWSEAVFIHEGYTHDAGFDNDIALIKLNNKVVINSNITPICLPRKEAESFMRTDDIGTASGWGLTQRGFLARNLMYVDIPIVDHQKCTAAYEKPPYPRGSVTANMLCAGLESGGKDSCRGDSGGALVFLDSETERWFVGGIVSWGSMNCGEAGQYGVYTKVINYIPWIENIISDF

Row | Compound | Ki (mMASP-2) | Ki (MASP-2 (CCP1-CCP2-SP)) | Ki (human α-thrombin; read-out: Thrombin Ki) | Ki (MASP-2 (CCP1-CCP2-SP); read-out: MASP-2 Ki) | MASP-2 vs. thrombin selectivity (MASP-2 (CCP1-CCP2-SP); [1]) | Ki (human α-thrombin; Thrombin Ki (μM)) | MASP-2 vs. thrombin selectivity (MASP-2 (CCP1-CCP2-SP); [2])
1 | C[C@H](NC(=O)[C@H]1C[C@H](c2ccccc2)CN1)C(=O)NCc1cc(Cl)cc(C#N)c1 [compound 1386, (2R,4R)—N—((S)-1-((3-Chloro-5-cyanobenzyl)amino)-1-oxopropan-2-yl)-4-phenylpyrrolidine-2-carboxamide Trifluoroacetate salt] | > 25 µM | 10 to 25 µM | > 25 µM |  |  |  | 
2 | C[C@H](NC(=O)[C@H]1C[C@H](Cc2ccccc2)CN1)C(=O)NCc1cc2cnccc2[nH]1 [compound 1472, (2R,4S)—N—((S)-1-(((1H-Pyrrolo[3,2-c]pyridin-2-yl)methyl)amino)-1-oxopropan-2-yl)-4-benzylpyrrolidine-2-carboxamide Di-trifluoroacetate salt] | < 0.5 µM |  |  | < 0.5 µM | **** (≥100-fold) | 2.5 to 10 µM | 
3 | C[C@H](NC(=O)[C@H]1C[C@H](c2ccccc2)CN1)C(=O)NCc1cnc2cccc(Cl)c2c1 [compound 1457, (2R,4R)—N—((S)-1-(((5-chloroquinolin-3-yl)methyl)amino)-1-oxopropan-2-yl)-4-phenylpyrrolidine-2-carboxamide] | 2.5 to 10 µM | 10 to 25 µM | > 25 µM |  |  |  | 
4 | COc1cc(CNC(=O)[C@H](C)NC(=O)[C@H](N)CCc2ccccc2)cnc1N [compound 1266, (R)-2-Amino-N—((S)-1-(((6-amino-5-methoxypyridin-3-yl)methyl)amino)-1-oxopropan-2-yl)-4-phenylbutanamide] | > 25 µM | 0.5 to 2.5 µM | > 25 µM |  | ** (≥5.0 to <25-fold) |  | 
5 | C[C@H](NC(=O)[C@H]1C[C@H](c2ccccc2)CN1)C(=O)NCc1cnc2[nH]nc(Cl)c2c1 [compound 1384, (2R,4R)—N—((S)-1-(((3-Chloro-1H-pyrazolo[3,4-b]pyridin-5-yl)methyl)amino)-1-oxopropan-2-yl)-4-phenylpyrrolidine-2-carboxamide Dihydrochloride] | > 25 µM | 10 to 25 µM | > 25 µM |  | * (≥1.0 to <5.0-fold) |  | 
6 | Cc1cccc(CC[C@@H](N)C(=O)N[C@@H](C)C(=O)NCc2ccc(C(=N)N)cc2)c1C [compound 1072] | < 0.5 µM |  | < 0.5 µM | < 0.5 µM |  |  | ** (5.0 to 25-fold)
7 | Cc1nc(N)ccc1CNC(=O)[C@H](C)NC(=O)[C@H]1C[C@@H](c2ccccc2)CCN1CCC(=O)O [compound 1411, 3-((2R,4S)-2-(((S)-1-(((6-Amino-2-methylpyridin-3-yl)methyl)amino)-1-oxopropan-2-yl)carbamoyl)-4-phenylpiperidin-1-yl)propanoic acid Trifluoroacetate salt] | < 0.5 µM |  | > 25 µM | < 0.5 µM |  |  | 
8 | C[C@H](NC(=O)[C@@H](CCc1ccccc1)NCc1ccc[nH]1)C(=O)NCc1ccc(C(=N)N)cc1 [compound 1128] | < 0.5 µM |  | < 0.5 µM | < 0.5 µM |  |  | * (1.0 to 5.0-fold)
9 | Cc1cc(Cl)cc(CNC(=O)[C@H](C)NC(=O)[C@H]2C[C@H](Cc3ccccc3-c3ccccc3)CN2)c1O [compound 1401, (2R,4S)-4-([1,1′-Biphenyl]-2-ylmethyl)-N-((S)-1-((5-chloro-2-hydroxy-3-methylbenzyl)amino)-1-oxopropan-2-yl)pyrrolidine-2-carboxamide Hydrochloride] | 0.5 to 2.5 µM |  | > 25 µM | < 0.5 µM |  |  | 
10 | Cc1cccc([C@H]2CN[C@@H](C(=O)N[C@@H](C)C(=O)NCc3ccc(N)nc3C)C2)c1 [compound 1257, (2R,4S)—N—((S)-1-(((6-Amino-2-methylpyridin-3-yl)methyl)amino)-1-oxopropan-2-yl)-4-(m-tolyl)pyrrolidine-2-carboxamide] | 10 to 25 µM |  | > 25 µM | < 0.5 µM | *** (≥25 to <100-fold) |  | 
11 | Cc1cc(Cl)cc(CNC(=O)[C@H](C)NC(=O)[C@H]2C[C@H](c3ccccc3)CN2)c1O [compound 1298, (2R,4R)—N—((S)-1-((5-chloro-2-hydroxy-3-methylbenzyl)amino)-1-oxopropan-2-yl)-4-phenylpyrrolidine-2-carboxamide Hydrochloride] | 2.5 to 10 µM |  | > 25 µM | < 0.5 µM |  |  | 
12 | C[C@H](NC(=O)[C@H]1C[C@H](Cc2ccccc2Br)CN1)C(=O)NCc1cnc2c(c1)c(Cl)cn2C [compound 1482, (2R,4S)-4-(2-bromobenzyl)-N-((S)-1-(((3-chloro-1-methyl-1H-pyrrolo[2,3-b]pyridin-5-yl)methyl)amino)-1-oxopropan-2-yl)pyrrolidine-2-carboxamide Hydrochloride] | < 0.5 µM |  |  | < 0.5 µM | *** (≥25 to <100-fold) | 0.5 to 2.5 µM | 
13 | C[C@H](NC(=O)[C@H]1C[C@H](Cc2ccccc2)CN1)C(=O)NCc1ccc(C(=N)N)cc1 [compound 1306, (2R,4S)-4-Benzyl-N-((S)-1-((4-carbamimidoylbenzyl)amino)-1-oxopropan-2-yl)pyrrolidine-2-carboxamide Dihydrochloride] | < 0.5 µM |  | < 0.5 µM | < 0.5 µM | * (≥1.0 to <5.0-fold) |  | 
14 | C[C@H](NC(=O)[C@H]1C[C@H](c2ccccc2)CN1)C(=O)NCc1cc2cnccc2[nH]1 [compound 1463, (2R,4R)—N—((S)-1-(((1H-Pyrrolo[3,2-c]pyridin-2-yl)methyl)amino)-1-oxopropan-2-yl)-4-phenylpyrrolidine-2-carboxamide Di-trifluoroacetate salt] | < 0.5 µM |  | > 25 µM | < 0.5 µM |  |  | 
15 | C[C@H](NC(=O)[C@H]1C[C@H](c2ccccc2)CN1)C(=O)NCc1ccc2c(N)n[nH]c2c1 [compound 1425, (2R,4R)—N—((S)-1-(((3-Amino-1H-indazol-6-yl)methyl)amino)-1-oxopropan-2-yl)-4-phenylpyrrolidine-2-carboxamide Trifluoroacetate salt] | 0.5 to 2.5 µM | 2.5 to 10 µM | > 25 µM |  |  |  | 
16 | Cc1cc(Cl)cc(CNC(=O)[C@H](C)NC(=O)[C@H]2C[C@@H](c3ccccc3)CCN2)c1O [compound 1365, (2R,4S)—N—((S)-1-((5-Chloro-2-hydroxy-3-methylbenzyl)amino)-1-oxopropan-2-yl)-4-phenylpiperidine-2-carboxamide Hydrochloride] | < 0.5 µM |  | > 25 µM | < 0.5 µM | **** (≥100-fold) |  | 
17 | C[C@H](NC(=O)[C@H]1C[C@H](c2ccccc2)CN1)C(=O)NCc1cc(Br)cc2cn[nH]c12 [compound 1462, (2R,4R)—N—((S)-1-(((5-bromo-1H-indazol-7-yl)methyl)amino)-1-oxopropan-2-yl)-4-phenylpyrrolidine-2-carboxamide] | 2.5 to 10 µM | 0.5 to 2.5 µM |  |  | ** (≥5.0 to <25-fold) | 10 to 25 µM | 
18 | Cc1nc(N)ccc1CNC(=O)[C@H](C)NC(=O)[C@H]1C[C@@H](CCc2ccccc2)CN1 [compound 1322, (2R,4R)—N—((S)-1-(((6-Amino-2-methylpyridin-3-yl)methyl)amino)-1-oxopropan-2-yl)-4-phenethylpyrrolidine-2-carboxamide Dihydrochloride] | 0.5 to 2.5 µM |  |  | < 0.5 µM | *** (≥25 to <100-fold) | 10 to 25 µM | 
19 | Cc1nc(N)ccc1CNC(=O)[C@H](C)NC(=O)[C@H]1C[C@H](Cc2ccc(Br)c(Cl)c2)CN1 [compound 1466, (2R,4S)—N—((S)-1-(((6-Amino-2-methylpyridin-3-yl)methyl)amino)-1-oxopropan-2-yl)-4-(4-bromo-3-chlorobenzyl)pyrrolidine-2-carboxamide Di-trifluoroacetate salt] | < 0.5 µM |  |  | < 0.5 µM | **** (≥100-fold) | 10 to 25 µM | 
20 | Cc1nc(N)ccc1CNC(=O)[C@H](C)NC(=O)[C@H]1C[C@H](Cc2cc(-c3ccccc3)cs2)CN1 [compound 1399, (2R,4R)—N—((S)-1-(((6-Amino-2-methylpyridin-3-yl)methyl)amino)-1-oxopropan-2-yl)-4-((4-phenylthiophen-2-yl)methyl)pyrrolidine-2-carboxamide Dihydrochloride] | < 0.5 µM |  |  | < 0.5 µM | **** (≥100-fold) | 10 to 25 µM | 
21 | Cc1nc(N)ccc1CNC(=O)[C@H](C)NC(=O)[C@H]1C[C@H](Cc2cc3ccccc3s2)CN1 [compound 1458, (2R,4R)—N—((S)-1-(((6-Amino-2-methylpyridin-3-yl)methyl)amino)-1-oxopropan-2-yl)-4-(benzo[b]thiophen-2-ylmethyl)pyrrolidine-2-carboxamide Di-trifluoroacetate salt] | < 0.5 µM |  | > 25 µM | < 0.5 µM | **** (≥100-fold) |  | 
22 | C[C@H](NC(=O)[C@H]1C[C@H](c2ccccc2)CN1)C(=O)NCc1cc(Cl)cc(Cl)c1O [compound 1395, (2R,4R)—N—((S)-1-((3,5-dichloro-2-hydroxybenzyl)amino)-1-oxopropan-2-yl)-4-phenylpyrrolidine-2-carboxamide Trifluoroacetate] | 2.5 to 10 µM | 0.5 to 2.5 µM | > 25 µM |  |  |  | 
23 | Cc1cnc(NCCc2ccccc2)c(=O)n1CC(=O)NCc1cc(Cl)ccc1-n1cnnn1 [compound 1489, N-(5-Chloro-2-(1H-tetrazol-1-yl)benzyl)-2-(6-methyl-2-oxo-3-(phenethylamino)pyrazin-1(2H)-yl)acetamide] | 0.5 to 2.5 µM |  | < 0.5 µM | < 0.5 µM | −− (<1.0-fold) |  | 
24 | Cc1nc(N)ccc1CNC(=O)[C@H](C)NC(=O)[C@H]1C[C@H](Cc2ccc(F)c(Cl)c2)CN1CCC(=O)O [compound 1473, 3-((2R,4S)-2-(((S)-1-(((6-Amino-2-methylpyridin-3-yl)methyl)amino)-1-oxopropan-2-yl)carbamoyl)-4-(3-chloro-4-fluorobenzyl)pyrrolidin-1-yl)propanoic acid Trifluoroacetate salt] | < 0.5 µM |  | > 25 µM | < 0.5 µM |  |  | 
